Reference: patent publication US8178506B2, “Oligomeric compounds and compositions for use in modulation of small non-coding RNAs” (Regulus Therapeutics Inc., priority 2003, dated 2012)
In the oligonucleotide strings, read from the 5' end, every base follows the letter of its sugar. An asterisk marks phosphorothioate; unmarked linkages are phosphodiester. Other units and linkages are bracketed, terminal groups are in braces. A string of capitals states the bases alone. e = 2'-O-(2-methoxyethyl) (MOE); [5mC] = 5-methylcytosine

System: mir-143 binding sites
Test: pGL3-mir-143 sensor luciferase assay in HeLa cells
Format: cell-based, human
Settings: HeLa cells, pGL3-mir-143 sensor with pCR3-pri-mir-143 (430)
Excerpt: In one embodiment, an expression system based on the pGL3-Control (Promega Corp., Madison Wis.) vector containing a CMV promoter controlling expression of a luciferase reporter sequence was used in transient transfections of HeLa cells with plasmids expressing miRNA or pri-miRNA mimics. To assess the ability of miRNA mimics to bind and regulate the expression of the luciferase reporter gene, two reporter plasmids were constructed: 1) a synthetic DNA fragment comprising two sites perfectly complementary to mir-143 were inserted into the pGL3-Control luciferase reporter vector, to create the pGL3-mir-143 sensor plasmid, and 2) a DNA fragment comprising the 3′-UTR of the LIM domain only 4 (LMO4) gene (predicted to be regulated by mir-143) was inserted into pGL3-Control to create pGL3-LMO4; this fragment was PCR-amplified using a primer beginning at position 1261 of the LMO4 sequence (GenBank Accession NM_006769.2, incorporated herein as SEQ ID: 809) and the downstream primer hybridizing to the poly-A tail. In each of these plasmids, the target site was placed downstream of the luciferase coding sequence and upstream of the polyadenylation signal in the 3′-UTR of the luciferase reporter vector. The unmodified pGL3-Control luciferase reporter vector was used as a control.
HeLa cells were routinely cultured and passaged as described, and on the day before transfection with expression or reporter plasmids, the HeLa cells were seeded onto 24-well plates 50,000 cells/well. Cells were transfected according to standard published procedures with various combinations of plasmids using 2 μg Lipofectamine™ 2000 Reagent (Invitrogen) per μg of plasmid DNA, or, when transfecting oligomeric compounds, 1.25 μg of Lipofectamine™ 2000 Reagent per 100 nM oligonucleotide or double-stranded RNA. The luciferase signal in each well was normalized to the Renilla luciferase (RL) activity produced from a co-transfected plasmid, pRL-CMV, which was transfected at 0.5 μg per well. Cells were treated at various dosages (4 nM, 20 nM, and 100 nM) with the following oligomeric compound mimics: 1) “ds-mir-143,” 2) “ds-Control,” 3) “pCR3-pri-mir-143,” or 4) “pri-mir-control,” as described supra. In accordance with methods described in Example 12, supra, a luciferase assay was performed 48-hours after transfection. Briefly, cells were lysed in passive lysis buffer (PLB; Promega), and 20 ul of the lysate was then assayed for RL activity using a Dual Luciferase Assay kit (Promega) according to the manufacturer's protocol. The results below are an average of three trials and are presented as percent pGL3-Control luciferase expression normalized to pRL-CMV expression (RL).
In another embodiment, HeLa cells were transfected with 0.03 μg pGL3-mir-143 sensor plasmid and 0.01 μg pRL-CMV plasmid, and, in addition, (except those samples described below as “without mir-143 pri-miRNA,”) were also transfected with 0.01 μg of an expression plasmid designed to express a mir-143 pri-miRNA mimic comprising a larger 430-nt fragment of the mir-143 primary miRNA transcript, referred to as “pCR3-pri-mir-143 (430)” ([…]; SEQ ID NO: 871). […] To further evaluate the ability of the mir-143 pri-miRNA mimic to inhibit luciferase activity from the sensor plasmid, and to assess the ability of oligomeric compounds to interfere with the inhibition of pGL3-mir-143 sensor luciferase expression by the mir-143 pri-miRNA mimic, pGL3-mir-143 sensor-expressing HeLa cells treated with pCR3-pri-mir-143 (430) were additionally treated with varying concentrations (0-, 6.7- or 20 nM) of the following oligomeric compounds: 1) ISIS Number 327901 (SEQ ID NO: 319), a uniform 2′-MOE oligomeric compound targeting mir-143; 2) ISIS Number 342673 (SEQ ID NO: 758), a uniform 2′-MOE scrambled control; or 3) ISIS Number 327924 (SEQ ID NO: 342) targeting an unrelated miRNA (mir-129-2). […]

Row | Substance | Relative luciferase activity (6.7 nM) | Relative luciferase activity (20 nM)
1 | 342673 (antisense eA*eG*eA*e[5mC]*eT*eA*eG*e[5mC]*eG*eG*eT*eA*eT*e[5mC]*eT*eT*eT*eA*eT*e[5mC]*e[5mC]*e[5mC]) [compound 342673] | 1.3 | 1.5
2 | 327901 (antisense eT*eG*eA*eG*e[5mC]*eT*eA*e[5mC]*eA*eG*eT*eG*e[5mC]*eT*eT*e[5mC]*eA*eT*e[5mC]*eT*e[5mC]*eA) [compound 327901] | 4.0 | 6.4
